Molecular target: T1, TRPM7 (transient receptor potential melastatin 7) (Mus musculus, UniProt Q923J1)
T1 construct: murine TRPM7 (GenBank AF376052) overexpressed in HEK293 (HEK-M7)
Assay: whole-cell patch clamp at +[…] mV; Fura-2 Mn2+ quench gave IC50 […]
Type: cell-based

T1 sequence (Q923J1 whole entry): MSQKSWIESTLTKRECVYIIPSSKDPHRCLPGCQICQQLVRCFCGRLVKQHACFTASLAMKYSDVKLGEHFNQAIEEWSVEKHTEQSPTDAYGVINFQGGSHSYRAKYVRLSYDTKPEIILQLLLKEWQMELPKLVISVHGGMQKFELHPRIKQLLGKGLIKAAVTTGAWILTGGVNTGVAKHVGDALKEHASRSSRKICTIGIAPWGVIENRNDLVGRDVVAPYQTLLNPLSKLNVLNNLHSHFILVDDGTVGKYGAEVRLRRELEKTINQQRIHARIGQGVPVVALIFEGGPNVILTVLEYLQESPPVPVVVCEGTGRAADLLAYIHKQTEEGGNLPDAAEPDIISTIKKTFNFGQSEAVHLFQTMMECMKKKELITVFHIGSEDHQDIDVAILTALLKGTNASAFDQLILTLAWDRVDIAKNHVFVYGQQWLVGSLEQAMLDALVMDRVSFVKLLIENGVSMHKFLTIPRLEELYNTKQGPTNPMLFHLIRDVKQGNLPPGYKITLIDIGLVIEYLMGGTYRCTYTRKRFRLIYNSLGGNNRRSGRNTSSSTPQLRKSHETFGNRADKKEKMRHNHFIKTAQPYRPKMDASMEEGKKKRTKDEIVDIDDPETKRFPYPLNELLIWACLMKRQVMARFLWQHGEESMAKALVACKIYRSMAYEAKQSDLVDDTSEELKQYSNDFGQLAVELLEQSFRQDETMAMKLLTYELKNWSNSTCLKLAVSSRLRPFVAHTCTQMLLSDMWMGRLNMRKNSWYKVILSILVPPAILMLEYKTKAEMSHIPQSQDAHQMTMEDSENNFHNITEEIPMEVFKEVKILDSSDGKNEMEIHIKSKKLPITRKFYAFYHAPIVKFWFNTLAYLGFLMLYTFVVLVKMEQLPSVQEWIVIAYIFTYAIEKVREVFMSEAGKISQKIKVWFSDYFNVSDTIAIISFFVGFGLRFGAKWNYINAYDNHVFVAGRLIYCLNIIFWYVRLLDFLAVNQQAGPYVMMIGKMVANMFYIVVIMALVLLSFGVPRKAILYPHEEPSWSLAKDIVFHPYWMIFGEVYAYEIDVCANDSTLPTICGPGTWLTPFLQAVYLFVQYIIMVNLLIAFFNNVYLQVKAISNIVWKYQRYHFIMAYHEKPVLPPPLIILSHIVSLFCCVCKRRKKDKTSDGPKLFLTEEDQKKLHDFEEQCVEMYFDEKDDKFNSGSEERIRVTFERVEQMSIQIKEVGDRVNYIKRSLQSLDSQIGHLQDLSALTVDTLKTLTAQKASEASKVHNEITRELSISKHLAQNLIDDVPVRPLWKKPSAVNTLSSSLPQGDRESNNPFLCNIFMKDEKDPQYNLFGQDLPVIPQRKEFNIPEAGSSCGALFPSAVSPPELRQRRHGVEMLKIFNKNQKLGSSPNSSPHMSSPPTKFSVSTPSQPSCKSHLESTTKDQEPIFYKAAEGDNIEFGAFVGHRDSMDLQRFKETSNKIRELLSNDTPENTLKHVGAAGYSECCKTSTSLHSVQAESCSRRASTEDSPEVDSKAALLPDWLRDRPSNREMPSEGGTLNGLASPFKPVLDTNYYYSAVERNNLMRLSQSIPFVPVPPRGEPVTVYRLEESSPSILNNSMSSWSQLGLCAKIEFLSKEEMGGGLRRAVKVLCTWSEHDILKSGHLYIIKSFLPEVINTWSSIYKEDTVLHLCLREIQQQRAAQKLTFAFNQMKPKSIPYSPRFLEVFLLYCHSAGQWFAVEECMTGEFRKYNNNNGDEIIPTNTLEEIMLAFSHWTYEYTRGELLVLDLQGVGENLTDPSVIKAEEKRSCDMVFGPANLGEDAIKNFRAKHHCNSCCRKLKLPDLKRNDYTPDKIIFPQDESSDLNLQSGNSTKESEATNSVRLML

Structure (SMILES): NCCOB(c1ccccc1)c1ccccc1 [2-APB, 2-aminoethyl diphenylborinate]
- IC50: 120 ± 16 µM
